Each structure is given as a SMILES string. The source made the active and inactive calls. No cut-off for these calls is given here.

One experiment deals with TA3. The experiment can be described thus: Antitumor activity against mouse TA3 cells assessed as growth inhibition at 10^-4 M. Format: functional, cell-based.
Regarding `CC(=O)N1C(c2ccc(C)cc2)SC(C)(C)C1C(=O)O` (centres undefined), the “growth inhibition (GI)” value was “inactive”. On the same count and under the same terms, to `CC(=O)N1[C@@H](c2ccc(C)cc2)SC[C@H]1C(=O)C=[N+]=[N-]` belongs “inactive”; to `Cc1ccc(C2NC(C(=O)O)C(C)(C)S2)cc1` (centres undefined), “inactive”. Take `CC(=O)N1[C@@H](c2ccc(C)cc2)SC[C@H]1C(=O)O`: the “growth inhibition (GI)” value is “inactive”.

Another experiment relates to TA3. The experiment can be described thus: Induction of growth in mouse TA3 cell at 10^-4 M. Format: functional, cell-based.
For `Cc1ccc([C@@H]2N[C@H](C(=O)O)CS2)cc1`, the result was Active. In the case of `CC(=O)N1[C@@H](c2ccc(C)cc2)SC[C@H]1C(=O)O`, the result was inactive. The same measure, in the same setting: to `Cc1ccc([C@H]2SC[C@@H](C(=O)O)N2C(=O)C(F)(F)F)cc1` belongs “inactive”.

The test system of another experiment is TA3. The experiment in a line: Antitumor activity against mouse TA3 cells assessed as growth inhibition. Format: functional.
Turning to `CC(=O)N1[C@@H](c2ccc(C)cc2)SC[C@H]1C(=O)CCl`, the ID50 is given as 3.2 ×10⁻⁵ M. The same measure, in the same setting: to `N[C@@H](CSC(c1ccccc1)(c1ccccc1)c1ccccc1)C(=O)O` [S-TRITYL-L-CYSTEINE] belongs 6.3 ×10⁻⁷ M.

(Values after ChEMBL document CHEMBL3272015, “Cysteine derivatives with reactive groups as potential antitumor agents” (1976).)
